# Results reported in patent US11918666B2, “Topical formulations comprising strontium and methylsulfonylmethane (MSM) and methods of treatment” (NOON AESTHETICS M.R LTD., priority 2018, dated 2024).
# Read-outs that look alike come from different tables or passages of the source.
# Columns and labels:
# tyrosinase = tyrosinase (Homo sapiens, UniProt P14679); settings: higher than beta-arbutin; cited from earlier work
# skin = settings: rabbits
# Sequence of tyrosinase (P14679 19-529): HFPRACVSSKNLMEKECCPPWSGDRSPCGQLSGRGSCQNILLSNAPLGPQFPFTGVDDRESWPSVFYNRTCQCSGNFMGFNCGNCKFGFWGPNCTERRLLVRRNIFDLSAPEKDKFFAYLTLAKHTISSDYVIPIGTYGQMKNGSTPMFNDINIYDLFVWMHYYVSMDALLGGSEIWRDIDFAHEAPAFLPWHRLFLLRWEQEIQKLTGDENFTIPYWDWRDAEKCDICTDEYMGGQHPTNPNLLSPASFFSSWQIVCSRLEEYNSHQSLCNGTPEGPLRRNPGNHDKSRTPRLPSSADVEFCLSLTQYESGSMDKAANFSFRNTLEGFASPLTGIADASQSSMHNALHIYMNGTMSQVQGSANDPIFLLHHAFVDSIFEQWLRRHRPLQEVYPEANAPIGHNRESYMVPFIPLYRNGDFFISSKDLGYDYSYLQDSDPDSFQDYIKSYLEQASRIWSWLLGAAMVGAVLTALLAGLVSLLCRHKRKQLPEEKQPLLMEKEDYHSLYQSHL
Compound,stability and efficiency relative to beta-arbutin (tyrosinase) [times],skin irritant effect (skin; glycolic acid applied alone at 10% w/w),skin irritant effect (skin; glycolic acid applied alone at 30% or 40% w/w)
alpha-arbutin [alpha arbutin],50,,
O=C(O)CO [glycolic acid],,mild skin irritant effect,moderate skin irritant
